Data published in ChEMBL document CHEMBL1123256, “Neuroleptics from the 4a,9b-trans-2,3,4,4a,5,9b-hexahydro-1H-pyrido[4,3-b]indole series. 3. Carboxamidoalkyl derivatives” (J Med Chem, 1986).

Assays:
Dopamine receptor [1] = target: Dopamine receptor
Description: Ability to displace [3H]spiroperidol from labeled Dopamine receptor of corpus striatum

Dopamine receptor [2] = assay: Compound was tested in vitro for its ability to displace [3H]spiroperidol from labeled Dopamine receptor of corpus striatum; type: functional
Rattus norvegicus [3] = assay: Compound was tested in vivo for its ability to antagonize the stereotypy in rats induced by d-amphetamine sulfate 1 hr later of the treatment; value ranges from 0.1-0.32; type: functional
Rattus norvegicus [4] = assay: Compound was tested in vivo for its ability to antagonize the stereotypy in rats induced by d-amphetamine sulfate 1 hr later of the treatment; value ranges from 0.03-0.1; type: functional
Rattus norvegicus [5] = assay: Compound was tested in vivo for its ability to antagonize the stereotypy in rats induced by d-amphetamine sulfate 24 hr later of the treatment; value ranges from 0.32-1.0; type: functional
Rattus norvegicus [6] = assay: Compound was tested in vivo for its ability to antagonize the stereotypy in rats induced by d-amphetamine sulfate 5 hr later of the treatment; value ranges from 0.1-0.032; type: functional
Dopamine receptor [7] = target: Dopamine receptor; remark: listed apart in the source
Description: Compound was tested in vitro for its ability to displace [3H]spiroperidol from labeled dopamine receptors of corpus striatum

Rattus norvegicus [8] = assay: Compound was tested in vivo for its ability to antagonize the stereotypy in rats induced by d-amphetamine sulfate 5 h later of the treatment; value ranges from 0.32-1.0; type: functional

**Q.** With Cl.NCCCCN1CC[C@@H]2C(C1)c1cc(F)ccc1N2c1ccc(F)cc1 (some centres not stated) as the compound, how does the IC50 (Dopamine receptor [1]) read?
**A.** 28 nM

**Q.** CC(C(=O)CN1CC[C@@H]2C(C1)c1cc(F)ccc1N2c1ccc(F)cc1)c1ncco1.Cl (some centres not stated) was tested. Which IC50 (Dopamine receptor [1]) did it give?
**A.** 10 nM

**Q.** How did the IC50 (Dopamine receptor [1]) turn out when CC(=O)NCCCCCN1CC[C@@H]2C(C1)c1cc(F)ccc1N2c1ccc(F)cc1.Cl (some centres not stated) was run?
**A.** 9 nM

**Q.** For CC(=O)NCCN1CC[C@@H]2C(C1)c1cc(F)ccc1N2c1ccc(F)cc1.Cl (some centres not stated), which IC50 (Dopamine receptor [1]) is on record?
**A.** 16 nM

**Q.** Which IC50 (Dopamine receptor [2]) does the source give for CC(=O)NCCCCCCCN1CC[C@@H]2C(C1)c1cc(F)ccc1N2c1ccc(F)cc1.Cl (some centres not stated) here?
**A.** 9 nM

**Q.** CCOC(=O)NCCCCN1CC[C@@H]2C(C1)c1cc(F)ccc1N2c1ccc(F)cc1.Cl (some centres not stated) was tested. Which IC50 (Dopamine receptor [1]) did it give?
**A.** 11 nM

**Q.** With Cl.N#CCCCN1CC[C@@H]2C(C1)c1cc(F)ccc1N2c1ccc(F)cc1 (some centres not stated) as the compound, how does the ED50 (Rattus norvegicus [3]) read?
**A.** 0.1 mg/kg

**Q.** Which ED50 (Rattus norvegicus [4]) does the source give for CC(=O)NCCCN1CC[C@@H]2C(C1)c1cc(F)ccc1N2c1ccc(F)cc1.Cl (some centres not stated) here?
**A.** 0.03 mg/kg

**Q.** And the ED50 (Rattus norvegicus [5])?
**A.** 0.32 mg/kg

**Q.** And the IC50 (Dopamine receptor [1])?
**A.** 10 nM

**Q.** Which ED50 (Rattus norvegicus [6]) does the source give for Cl.O=C1CCCCN1CCCCN1CC[C@@H]2C(C1)c1cc(F)ccc1N2c1ccc(F)cc1 (some centres not stated) here?
**A.** 0.032 mg/kg

**Q.** And the IC50 (Dopamine receptor [7])?
**A.** 6.2 nM

**Q.** How did the IC50 (Dopamine receptor [1]) turn out when CC(=O)NCCCCN1CC[C@@H]2C(C1)c1cc(F)ccc1N2c1ccc(F)cc1.Cl (some centres not stated) was run?
**A.** 15 nM

**Q.** Cl.O=C1c2ccccc2C(=O)N1CCCCN1CC[C@@H]2C(C1)c1cc(F)ccc1N2c1ccc(F)cc1 (some centres not stated) was tested. Which IC50 (Dopamine receptor [7]) did it give?
**A.** 27 nM

**Q.** How did the IC50 (Dopamine receptor [1]) turn out when CC(=O)NCCCCCCN1CC[C@@H]2C(C1)c1cc(F)ccc1N2c1ccc(F)cc1.Cl (some centres not stated) was run?
**A.** 8 nM

**Q.** For Cl.O=c1oc2ccccc2n1CCCCN1CC[C@@H]2C(C1)c1cc(F)ccc1N2c1ccc(F)cc1 (some centres not stated), which ED50 (Rattus norvegicus [8]) is on record?
**A.** 0.32 mg/kg

**Q.** And the IC50 (Dopamine receptor [7])?
**A.** 28 nM
